Data published in ChEMBL document CHEMBL5500372, “Novel natural osthole-inspired amphiphiles as membrane targeting antibacterials against methicillin-resistant Staphylococcus aureus (MRSA)” (Eur J Med Chem, 2024).
Active and inactive are the calls of the source. No cut-off for these calls is given here.

Assays:
[1] = test system: Cell membrane; experiment: Induction of cytoplasmic membrane permeabilization in methicillin-resistant Staphylococcus aureus clinical isolate 16 assessed as increase in fluorescence intensity measured after 35 mins by SYTOX green dye based fluorescence analysis
[2] = test system: Cell membrane; experiment: Induction of cytoplasmic membrane depolarization in methicillin-resistant Staphylococcus aureus clinical isolate 16 assessed as increase in fluorescence intensity measured after 35 mins by DiSC3-5 dye based fluorescence method; assay type: cell membranes
[3] = test system: Staphylococcus aureus; experiment: Antibacterial activity against Staphylococcus aureus ATCC 29213 at 128 ug/ml measured after 20 passages by CLSI micro broth dilution method; assay type: functional, organism-based; conditions: dose 128.0 µg/ml
[4] = test system: Staphylococcus aureus; experiment: Antibacterial activity against Staphylococcus aureus ATCC 29213 measured after 18 hrs by CLSI based broth microdilution method; assay type: functional
[5] = test system: Staphylococcus aureus; experiment: Antibacterial activity against methicillin-resistant Staphylococcus aureus clinical isolate 17 measured after 18 hrs by CLSI based broth microdilution method; assay type: functional
[6] = test system: Staphylococcus aureus; experiment: Antibacterial activity against methicillin-resistant Staphylococcus aureus clinical isolate 13 measured after 18 hrs by CLSI based broth microdilution method; assay type: functional
[7] = test system: Staphylococcus aureus; experiment: Antibacterial activity against methicillin-resistant Staphylococcus aureus clinical isolate 23 measured after 18 hrs by CLSI based broth microdilution method; assay type: functional
[8] = test system: Staphylococcus aureus; experiment: Antibacterial activity against methicillin-resistant Staphylococcus aureus clinical isolate 16 measured after 18 hrs by CLSI based broth microdilution method; assay type: functional
[9] = test system: Staphylococcus aureus; experiment: Antibacterial activity against methicillin-resistant Staphylococcus aureus clinical isolate 21 measured after 18 hrs by CLSI based broth microdilution method; assay type: functional
[10] = test system: Staphylococcus aureus; experiment: Antibacterial activity against methicillin-resistant Staphylococcus aureus clinical isolate 11 measured after 18 hrs by CLSI based broth microdilution method; assay type: functional
[11] = test system: Staphylococcus aureus; experiment: Antibacterial activity against methicillin-resistant Staphylococcus aureus clinical isolate 12 measured after 18 hrs by CLSI based broth microdilution method; assay type: functional
[12] = test system: Staphylococcus aureus; experiment: Antibacterial activity against methicillin-resistant Staphylococcus aureus clinical isolate 20 measured after 18 hrs by CLSI based broth microdilution method; assay type: functional
[13] = test system: Staphylococcus aureus; experiment: Antibacterial activity against methicillin-resistant Staphylococcus aureus clinical isolate 22 measured after 18 hrs by CLSI based broth microdilution method; assay type: functional
[14] = test system: Staphylococcus aureus; experiment: Antibacterial activity against methicillin-resistant Staphylococcus aureus clinical isolate 14 measured after 18 hrs by CLSI based broth microdilution method; assay type: functional
[15] = test system: Escherichia coli; experiment: Antibacterial activity against Escherichia coli ATCC 25922 measured after 18 hrs by CLSI based broth microdilution method; assay type: functional
[16] = Hemolytic activity in sheep erythrocyte assessed as hemolysis incubated for 1 hr by absorbance based analysis; assay type: toxicity, cell-based, Ovis aries; conditions: sheep erythrocytes
[17] = Selectivity index, ratio of HC50 for hemolytic activity in sheep erythrocyte assessed as hemolysis to MIC for antibacterial activity against Staphylococcus aureus ATCC 29213; assay type: toxicity; conditions: sheep erythrocytes, read-out: Selectivity Index

With `CC[C@H](C)[C@H](NC(=O)CN)C(=O)NCC(=O)N[C@@H](C)C(=O)N[C@H](C(=O)N[C@@H](CC(C)C)C(=O)N[C@@H](CCCCN)C(=O)N[C@H](C(=O)N[C@@H](CC(C)C)C(=O)N[C@H](C(=O)N[C@H](C(=O)NCC(=O)N[C@@H](CC(C)C)C(=O)N1CCC[C@H]1C(=O)N[C@@H](C)C(=O)N[C@@H](CC(C)C)C(=O)N[C@H](C(=O)N[C@@H](CO)C(=O)N[C@@H](Cc1c[nH]c2ccccc12)C(=O)N[C@H](C(=O)N[C@@H](CCCCN)C(=O)N[C@@H](CCCNC(=N)N)C(=O)N[C@@H](CCCCN)C(=O)N[C@@H](CCCNC(=N)N)C(=O)N[C@@H](CCC(N)=O)C(=O)N[C@@H](CCC(N)=O)C(N)=O)[C@@H](C)CC)[C@@H](C)CC)[C@@H](C)O)[C@@H](C)O)C(C)C)C(C)C` the Activity [1] was “Active” and the Activity [2] was “Active”.
For `CCn1cc(C(=O)O)c(=O)c2cc(F)c(N3CCNCC3)cc21`, the Activity [3] was “Active”.
For `CC(C)=CCc1c(OCCCC[N+](C)(C)CC(=O)N(CC(C)C)CC(C)C)ccc2ccc(=O)oc12.[Br-]`, the MIC [4] was 4 µg/mL, the MIC [5] was 1 µg/mL and the MIC [6] was 4 µg/mL. The MIC [7] was 2 µg/mL, the MIC [8] was 2 µg/mL and the MIC [9] was 2 µg/mL. It also gave an MIC [10] of 2 µg/mL, an MIC [11] of 4 µg/mL and an MIC [12] of 2 µg/mL. It also gave an MIC [13] of 4 µg/mL, an MIC [14] of 2 µg/mL and an MIC [15] of 128 µg/mL. The HC50 at 1 h [16] was greater than 1280 µg/mL and the selectivity ratio [17] was greater than 320.
In the case of `CC(C)=CCc1c(OCCC[N+](C)(C)CC(=O)N(C(C)C)C(C)C)ccc2ccc(=O)oc12.[Br-]`, the MIC [4] is reported as 16 µg/mL, the MIC [5] is reported as 16 µg/mL and the MIC [6] is reported as 16 µg/mL. For the same compound, the MIC [7] was 16 µg/mL, the MIC [8] was 16 µg/mL and the MIC [9] was 16 µg/mL. For the same compound, the MIC [10] was 16 µg/mL, the MIC [11] was 16 µg/mL and the MIC [12] was 32 µg/mL. It also gave an MIC [13] of 16 µg/mL, an MIC [14] of 16 µg/mL and an MIC [15] of 128 µg/mL. It also gave an HC50 at 1 h [16] greater than 640 µg/mL and a selectivity ratio [17] greater than 40.
`CCCCN(CCCC)C(=O)C[N+](C)(C)CCCOc1ccc2ccc(=O)oc2c1CC=C(C)C.[Br-]` gave an MIC [4] of 4 µg/mL, an MIC [5] of 8 µg/mL and an MIC [6] of 4 µg/mL. For the same compound, the MIC [7] was 4 µg/mL, the MIC [8] was 4 µg/mL and the MIC [9] was 4 µg/mL. It also gave an MIC [10] of 4 µg/mL, an MIC [11] of 8 µg/mL and an MIC [12] of 4 µg/mL. It also gave an MIC [13] of 4 µg/mL, an MIC [14] of 4 µg/mL and an MIC [15] of 128 µg/mL. It also gave an HC50 at 1 h [16] of 1090 µg/mL and a selectivity ratio [17] of 272.
For `CC(C)=CCc1c(OCCCCC[N+](C)(C)CC(=O)N(C(C)C)C(C)C)ccc2ccc(=O)oc12.[Br-]`, the MIC [4] was 4 µg/mL, the MIC [5] was 4 µg/mL and the MIC [6] was 8 µg/mL. For the same compound, the MIC [7] was 4 µg/mL, the MIC [8] was 4 µg/mL and the MIC [9] was 4 µg/mL. For the same compound, the MIC [10] was 8 µg/mL, the MIC [11] was 8 µg/mL and the MIC [12] was 4 µg/mL. For the same compound, the MIC [13] was 4 µg/mL, the MIC [14] was 4 µg/mL and the MIC [15] was greater than 128 µg/mL. For the same compound, the HC50 at 1 h [16] was 736 µg/mL and the selectivity ratio [17] was 184.
